Converted amounts (≈) assume the structure as drawn.
Assays:
MEL-28 = experiment: In vitro test, IC50 on MEL-28; format: cell-based; conditions: Homo sapiens, SK-MEL-28; MEL-28, in vitro
Excerpt: (§1) On the other hand, the results of the tests in vitro carried out on compounds (IIIa) and (IIIb) were the following: […]

A-549 = experiment: In vitro test, IC50 on A-549; format: cell-based; conditions: Homo sapiens, A549; A-549, in vitro
Excerpt: as §1

P-388 = experiment: In vitro test, IC50 on P-388; format: cell-based; conditions: Mus musculus, P388; P-388, in vitro
Excerpt: as §1

HT-29 = experiment: In vitro test, IC50 on HT-29; format: cell-based; conditions: Homo sapiens; HT-29, in vitro
Excerpt: as §1

[1] = mice, therapeutic doses; cited from earlier work
[2] = test system: P388 leukemic tumor model; experiment: P388 antitumoral model in vivo (survival time, i.p. treatment); design: species or system mice; conditions: for %C/T: average survival of tested group/average survival of controls
Experimental: Normally, 1x10^6 cells in ascitic fluid was implanted i.p. in CD2F1 mice. Treatment with the agent tested i.p. began one day after the tumor had been implanted and it is continued daily up to a total of 5 injections for synthetic products and of 9 injections for raw natural products. The results are expressed as percentage of the control survival time.
CDFl mice weighing 18-22 gr (+/- 3 gr) were implanted on day 0 of the test period o.1 ml. of a dilution of 1.0x10^7 tumor cells coming from DBA/2N mice used for the propagation of the tumor.
On day 1 of the test period the animals were grouped at random in groups of six animals.Each group is weighed and the average weight is written down. Each compound to be tested in diluted in 4 levels of dosis for each multidose test as of the determination of the highest nontoxic dose (v.g. 400 mg/kg; 100 mg/kg; 10 mg/kg.)
Administration of the test compounds is started on day 1 using volumns of 1/2 drug injected i.p. Injections are given on days 1 to 9 of the test period, unless it is indicated to the contrary. The animals are weighed on day 5, which is the one which in this system is considered the day of toxicity. Toxicity in this test system is defined as: • A. 34 % deaths up to day 5 - acute toxicity • B. C/T<85% - chronic toxicity • C. A negative average of the weight change of the animals> 4 g up to day 5 - chronic toxicity
The data obtained upon testing the compounds in vivo in comparison with the P388 leukemic tumor model in mice are shown in the following table: […]

P388 model = conditions: cited from earlier work

COC(=O)c1cn(C)c2c(OC(C)=O)cc3c(c12)C(CCl)CN3C(=O)c1cc2cc(NC(=O)c3cc4ccccc4o3)ccc2[nH]1 (centres unmarked) [IIIa, methyl 4-acetoxy-6-{5-[(benzofuran-2-yl-carbonyl)-amino]1H-indole-2-carbonyl}-8-chloromethyl-3-methyl-3,6,7,8-tetrahydropyrrolo[3,2-e]indole-1-carboxylate]
IC50 (MEL-28): 0.25 ng/mL (≈ 0.391 nM) | IC50 (A-549): 0.05 ng/mL (≈ 0.0782 nM) | IC50 (P-388): 0.01 ng/mL (≈ 0.0156 nM) | IC50 (HT-29): 0.25 ng/mL (≈ 0.391 nM)

COc1c(O)c2c(c3cc(C(=O)N4CCc5c4c(O)c(OC)c4[nH]c(C(=O)N6CC7CC78C6=CC(=O)c6[nH]cc(C)c68)cc54)[nH]c13)CCN2C(N)=O (centres unmarked) [CC-1065]
delayed lethality [1]: producing delayed deaths in mice at therapeutic doses

COC(=O)c1cn(C)c2c(O)cc3c(c12)C(CCl)CN3C(=O)c1cc2cc(NC(=O)c3cc4ccccc4o3)ccc2[nH]1 (centres unmarked) [Compound (III), methyl 6-{5-[(benzofuran-2-ylcarbonyl)-amino]1H-indole-2-carbonyl}-8-chloromethyl-4-hydroxy-3-methyl-3,6,7,8,tetrahydropyrrolo[3,2-e]indole-1-carboxylate]
%C/T ([2]; inject. dose 0.500 mg/kg): >391.3%

O=C(Nc1ccc2[nH]c(C(=O)N3CC4CC45C3=CC(=O)c3ccccc35)cc2c1)c1cc2ccccc2[nH]1 (centres unmarked) [CBI-Ind2]
results in the P388 model in vivo (P388 model): very good results

COC(=O)c1cn(C)c2c(O)cc3c(c12)C(CCl)CN3C(=O)c1cc2cc(OC)c(OC)c(OC)c2[nH]1 (centres unmarked) [Compound (V), methyl 6-(5,6,7-trimethoxy-1H-indole-2-carbonyl)-8-chloromethyl-4-hydroxy-3-methyl-3,6,7,8-tetrahydropyrrololo[3,2-e]indole-1-carboxylate]
%C/T ([2]; inject. dose 0.050 mg/kg): 133.9% | Significant activity (class of %C/T) ([2]; inject. dose 0.050 mg/kg): ** (Significant activity (strong): C/T > =175%)

Cc1c[nH]c2c1[C@@]13C[C@@H]1CN(C(=O)c1cc4cc(NC(=O)c5cc6ccccc6o5)ccc4[nH]1)C3=CC2=O [Adocelesine]
delayed lethality [1]: without provoking delayed lethality

COC(=O)c1cc2c(n1C)C(=O)C=C1N(C(=O)c3cc4cc(OC)c(OC)c(OC)c4[nH]3)CC3CC123 (centres unmarked) [(VI), methyl 2-(5,6,7-trimethoxy-1H-indole-2-carbonyl)-5-methyl-4-oxo-1,2,4,5,8a-hexahydrocyclopropa[c]pyrrolo[3,2-e]indole-7-carboxylate]
%C/T ([2]; inject. dose 0.500 mg/kg): 210.9% | Significant activity (class of %C/T) ([2]; inject. dose 0.500 mg/kg): ** (Significant activity (strong): C/T > =175%)

methyl 2-[5-[(benzofuran-2-ylcarbonyl) amino]-1H-indol-2-carbonyl]-5-methyl-4-oxo,1,2,4,5,8,8,a-hexahydrocyclopropa[c]pyrrolo[3,2-e]indole-7-carboxylate [(IV)]
%C/T ([2]; inject. dose 0.300 mg/kg): 251.1% | Significant activity (class of %C/T) ([2]; inject. dose 0.300 mg/kg): ** (Significant activity (strong): C/T > =175%)

From patent publication EP0680964B1, “PYRROLO [3,2-e]INDOLE DERIVATIVES, PROCESS FOR THE PREPARATION THEREOF AND THEIR USE” (UNIVERSIDAD DE SANTIAGO DE COMPOSTELA, priority 1993, dated 1995)
